The term IC50 denotes the midpoint of a concentration-inhibition curve. Read a high IC50 as a need for much substance.

This passage reports IC50 results from ChEMBL document CHEMBL1134017, “Heterocycle-based MMP inhibitors with P2' substituents” (Bioorg Med Chem Lett, 2001).

Among the targets are Stromelysin-1 (Homo sapiens, UniProt P08254); Neutrophil collagenase (Homo sapiens, UniProt P22894); Collagenase 3 (Rattus norvegicus, UniProt P23097).
In assay [1] the target is T1, Matrilysin (Homo sapiens, UniProt P09237).
T1 sequence (P09237 whole entry): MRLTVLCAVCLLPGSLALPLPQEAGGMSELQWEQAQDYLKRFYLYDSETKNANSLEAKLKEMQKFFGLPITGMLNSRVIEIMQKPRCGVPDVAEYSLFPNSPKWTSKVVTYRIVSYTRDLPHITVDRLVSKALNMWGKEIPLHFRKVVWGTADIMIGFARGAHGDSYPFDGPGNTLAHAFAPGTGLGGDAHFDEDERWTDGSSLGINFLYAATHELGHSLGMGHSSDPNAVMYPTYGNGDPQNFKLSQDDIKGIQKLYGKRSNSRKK
Description: Inhibition of Matrix metalloprotease-7

In assay [2] the target is Matrix metalloproteinase-9 (Homo sapiens, UniProt P14780).
Sequence of Matrix metalloproteinase-9 (P14780 whole entry): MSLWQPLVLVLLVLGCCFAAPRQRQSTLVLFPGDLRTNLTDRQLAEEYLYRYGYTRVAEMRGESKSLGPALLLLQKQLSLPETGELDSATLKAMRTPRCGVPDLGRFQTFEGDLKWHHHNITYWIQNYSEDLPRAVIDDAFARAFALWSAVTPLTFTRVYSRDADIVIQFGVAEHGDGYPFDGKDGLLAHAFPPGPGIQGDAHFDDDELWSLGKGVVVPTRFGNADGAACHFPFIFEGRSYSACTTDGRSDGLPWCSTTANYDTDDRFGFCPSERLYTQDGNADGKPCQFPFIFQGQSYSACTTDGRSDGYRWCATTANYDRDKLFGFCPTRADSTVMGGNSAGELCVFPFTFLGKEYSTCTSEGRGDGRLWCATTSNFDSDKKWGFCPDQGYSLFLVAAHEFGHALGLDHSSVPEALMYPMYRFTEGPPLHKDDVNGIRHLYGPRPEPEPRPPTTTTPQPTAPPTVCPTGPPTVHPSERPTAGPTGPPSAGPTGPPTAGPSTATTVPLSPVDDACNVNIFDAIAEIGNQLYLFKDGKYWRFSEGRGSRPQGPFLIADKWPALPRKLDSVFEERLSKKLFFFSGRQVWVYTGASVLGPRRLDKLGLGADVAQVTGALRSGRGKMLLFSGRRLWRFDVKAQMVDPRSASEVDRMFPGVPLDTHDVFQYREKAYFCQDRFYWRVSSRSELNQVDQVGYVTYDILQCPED
Description: Inhibition of Matrix metalloprotease-9
The target of another assay is T2, Interstitial collagenase (Homo sapiens, UniProt P03956).
T2 sequence (P03956 whole entry): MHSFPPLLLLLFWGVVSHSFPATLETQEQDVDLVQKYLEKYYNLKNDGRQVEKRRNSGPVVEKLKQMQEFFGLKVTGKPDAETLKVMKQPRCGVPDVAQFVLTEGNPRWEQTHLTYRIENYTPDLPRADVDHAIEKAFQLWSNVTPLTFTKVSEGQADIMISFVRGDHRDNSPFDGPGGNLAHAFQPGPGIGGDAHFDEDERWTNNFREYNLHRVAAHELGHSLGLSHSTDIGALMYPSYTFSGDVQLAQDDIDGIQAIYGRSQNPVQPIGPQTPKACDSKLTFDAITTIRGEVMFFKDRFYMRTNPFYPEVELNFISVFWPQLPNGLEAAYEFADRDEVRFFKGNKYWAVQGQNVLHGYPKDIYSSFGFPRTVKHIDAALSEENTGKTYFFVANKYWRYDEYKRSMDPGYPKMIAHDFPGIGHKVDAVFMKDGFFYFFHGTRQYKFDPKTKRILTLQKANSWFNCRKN

For assay [3], the target named is T1, Matrilysin. This is another data set of the same source.
Description: Inhibition of Matrix metalloprotease-7

Sequence of Stromelysin-1 (P08254 whole entry): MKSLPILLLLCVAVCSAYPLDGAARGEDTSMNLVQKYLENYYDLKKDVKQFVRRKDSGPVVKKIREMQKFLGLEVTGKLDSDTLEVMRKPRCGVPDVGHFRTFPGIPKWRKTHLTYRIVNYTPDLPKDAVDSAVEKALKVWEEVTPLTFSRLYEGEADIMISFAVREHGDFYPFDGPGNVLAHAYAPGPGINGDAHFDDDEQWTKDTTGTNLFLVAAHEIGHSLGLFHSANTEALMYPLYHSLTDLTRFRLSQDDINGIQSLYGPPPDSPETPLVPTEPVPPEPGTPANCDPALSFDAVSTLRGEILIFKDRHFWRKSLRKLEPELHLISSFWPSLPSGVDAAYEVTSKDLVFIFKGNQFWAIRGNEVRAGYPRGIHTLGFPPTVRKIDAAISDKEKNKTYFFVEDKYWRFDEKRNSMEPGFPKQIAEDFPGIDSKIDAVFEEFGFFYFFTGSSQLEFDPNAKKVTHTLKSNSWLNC
Sequence of Neutrophil collagenase (P22894 whole entry): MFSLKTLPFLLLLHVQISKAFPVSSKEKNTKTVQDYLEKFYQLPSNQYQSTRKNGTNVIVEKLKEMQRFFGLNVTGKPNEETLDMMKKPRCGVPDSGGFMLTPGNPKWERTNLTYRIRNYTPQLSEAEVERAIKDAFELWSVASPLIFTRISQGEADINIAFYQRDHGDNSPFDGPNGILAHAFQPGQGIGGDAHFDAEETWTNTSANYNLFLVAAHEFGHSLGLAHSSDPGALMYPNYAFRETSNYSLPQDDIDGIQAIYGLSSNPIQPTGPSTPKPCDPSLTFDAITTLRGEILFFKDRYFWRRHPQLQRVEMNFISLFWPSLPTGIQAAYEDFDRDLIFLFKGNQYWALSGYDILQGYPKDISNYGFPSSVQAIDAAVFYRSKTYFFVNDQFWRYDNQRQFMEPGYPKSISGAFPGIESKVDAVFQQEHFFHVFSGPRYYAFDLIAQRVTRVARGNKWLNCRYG
Description for Collagenase 3: Inhibition of Matrix metalloprotease-13
Description for Interstitial collagenase: Inhibition of human Matrix metalloprotease-1
Description for Neutrophil collagenase: Inhibition of Matrix metalloprotease-8
Description for Stromelysin-1: Inhibition of Matrix metalloprotease-3

Consider `COc1ccc(S(=O)(=O)N2CCN(Cc3ccccc3)C(=O)C[C@@H]2C(=O)NO)cc1`, for which the half-maximal inhibitory concentration (IC50) against Stromelysin-1 was determined as 3.3 nM; against Neutrophil collagenase it was 1.5 nM; against Matrilysin [1], 88 nM; in assay [2], 1 nM; on Interstitial collagenase, 13.6 nM.

For `COc1ccc(S(=O)(=O)N2CN(C3CCCCC3)C(=O)C[C@@H]2C(=O)NO)cc1`, the IC50 worked out at 2.8 nM at Neutrophil collagenase; 776 nM against Matrilysin [1]; 3.3 nM in assay [2]; 465 nM against Interstitial collagenase; 0.75 nM against Collagenase 3.

Turning to `COc1ccc(S(=O)(=O)N2CN(Cc3ccccc3)C(=O)C[C@@H]2C(=O)NO)cc1`, the IC50 against Neutrophil collagenase is 6.4 nM; on Matrilysin [1], > 10000 nM; in assay [2], 6.8 nM; at Interstitial collagenase it was 22.2 nM.

`COCCN1CN(S(=O)(=O)c2ccc(OC)cc2)[C@@H](C(=O)NO)CC1=O`: the IC50 turned out to be 180 nM on Stromelysin-1; 102 nM against Neutrophil collagenase; 10000 nM at Matrilysin [1]; 52.5 nM in assay [2]; 696 nM on Interstitial collagenase.

`COc1ccc(S(=O)(=O)N2CCN(C(C)C)C(=O)C[C@@H]2C(=O)NO)cc1`: the IC50 on Stromelysin-1 was 6.5 nM; against Neutrophil collagenase, 3.7 nM; on Matrilysin [1], 369 nM; in assay [2] it was 4.1 nM; against Interstitial collagenase, 22 nM; against Collagenase 3 it was 1.9 nM.

As for `COc1ccc(S(=O)(=O)N2CCN(S(=O)(=O)c3cn(C)cn3)CC[C@@H]2C(=O)NO)cc1`, the IC50 is 39.2 nM against Stromelysin-1; 6.6 nM on Neutrophil collagenase; 2780 nM against Matrilysin [3]; 5.5 nM in assay [2]; 346 nM against Interstitial collagenase; 2.4 nM against Collagenase 3.

As to `COc1ccc(S(=O)(=O)N2C[C@@H]3CCCN3C(=O)C[C@@H]2C(=O)NO)cc1`, the figures for the IC50 on Stromelysin-1, against Interstitial collagenase and against Collagenase 3 were 3.4 nM, 1.2 nM and 2 nM, respectively.

On to `COc1ccc(S(=O)(=O)N2CN(C)C(=O)C[C@@H]2C(=O)NO)cc1`, for which the IC50 is 47.3 nM on Neutrophil collagenase; > 10000 nM against Matrilysin [1]; 24.1 nM in assay [2]; 2200 nM at Interstitial collagenase; 7.9 nM on Collagenase 3.

As for `COc1ccc(S(=O)(=O)N2CN(C(C)(C)C)C(=O)C[C@@H]2C(=O)NO)cc1`, the IC50 against Neutrophil collagenase was determined as 1.5 nM; against Matrilysin [1] it was 909 nM; in assay [2], 1.1 nM; on Interstitial collagenase, 320 nM; against Collagenase 3 it was 0.34 nM.

As to `COc1ccc(S(=O)(=O)N2CCN(C(=O)OCc3ccccc3)CC[C@@H]2C(=O)NO)cc1`, the IC50 against Stromelysin-1 was found to be 14 nM; at Neutrophil collagenase, 3.3 nM; against Matrilysin [3] it was 737 nM; in assay [2], 1.8 nM; at Interstitial collagenase it was 97 nM; at Collagenase 3, 2.1 nM.

Turning to `COc1ccc(S(=O)(=O)N2CN(C(C)C)C(=O)C[C@@H]2C(=O)NO)cc1`, the IC50 against Neutrophil collagenase turned out to be 6.3 nM; on Matrilysin [1] it was 3460 nM; in assay [2], 4.2 nM; at Interstitial collagenase, 643 nM; against Collagenase 3, 2.9 nM.

For `COc1ccc(S(=O)(=O)N2CC[C@H](C(=O)NO)N(S(=O)(=O)c3ccc(OC)cc3)CC2)cc1`, the IC50 was found to be 6.3 nM at Stromelysin-1; 1.8 nM on Neutrophil collagenase; 905 nM against Matrilysin [3]; 28.9 nM against Interstitial collagenase; 0.84 nM on Collagenase 3.
